# According to patent publication US20250302720A1, “PEPTIDE-BASED HAIR TREATMENT” (Sederma, priority 2020, published 2025):
# Residues, ends and D or L forms follow the SMILES beside them.
# Columns and labels:
# [1] = tested on: melanocyte dendrites (NHM); experiment: Length of melanocyte dendrites (antibody labelling, image analysis); format: cell-based, human; conditions: 48 hours, vs control, n = 3
# Experimental: The cells are brought into contact with the peptide according to the invention for 48 hours. Then the melanocyte layers, once rinsed, are labeled using an antibody. The area occupied by the dendrites are obtain by image analysis on the photos taken, a parameter converted into the relative dendrite length/100 cells. At the same time, the cell nuclei are counterstained using Hoescht 33258 fluorescent dye to estimate the cell number and to harmonize the data.
# MITF = experiment: Expression of melanogenesis genes in NHM (qRTPCR): MITF; format: cell-based, human; conditions: 72 h, vs control, n = 4
# Experimental: (§1) NHM are cultivated and brought into contact with the peptide according to the invention or its solvent. At the end of 72 h of contact, the melanocytes are crushed, and the mRNAs are recovered, converted into cDNA which are analyzed by qRTPCR, to estimate the changes in the expression level of the mRNAs. The expression of the following genes has been studied: MITF, TYRP1 and CREB.
# TYRP1 = experiment: Expression of melanogenesis genes in NHM (qRTPCR): TYRP1; format: cell-based, human; conditions: 72 h, vs control, n = 4
# Experimental: as §1
# [2] = tested on: white and non-white hairs of volunteers; experiment: In-vivo non-white/white hair ratio by TrichoScan micro-photos; parameters: species or system human; conditions: lotion 90 ppm, 18 volunteers, temples, T 4 m
# Experimental: The in-vivo tests were carried out by applying the hair lotion described above in point 1) in the Galenic part. This lotion comprises 90 ppm of the peptide of the invention. Four independent studies were conducted with a total of 84 volunteers (average age of the entire panel of selected volunteers was 42 years). All four studies were conducted over a wide range of geographical locations, times, seasons, application sites, phototypes and methods. The details are specified in the below table.
# Only one study (at site 2) used this technology (a new tool for analyzing hair growth) which has the advantage of providing data on a very small area and seeing the hair individually. The scalp area is identified and shaved a few days before the photo, and this at different times. Widely used for the study of hair loss, with this technology, thanks to its high magnification, it is also possible to work on hair coloring. The TrichoScan® system includes an epiluminescence microcamera system.
# 2.4—Evaluation of the Number of White Hairs and Non-White Hairs The TrichoScan® software was used to determine the number of white hairs, the number of black hairs and the calculation of the black/white ratio. This ratio increases with the number of dark hairs when the treatment acts.
# tyrosinase = experiment: Tyrosinase (dopa-oxidase) activity extracted from NHM after 10 days; format: cell-based, human; conditions: vs control, n = 4
# Experimental: The same culture and contact protocol as above are used with the melanocytes of two different donors with regard to their production of melanin (moderately and poorly pigmented).
# After contact, the tyrosinase was extracted from the cells and its dopa-oxidase activity is assessed using the substrate L-DOPA at 37° C. The absorbance due to the production of Dopaquinone is measured at 490 nm and converted to activity units using a preset range. A protein assay using the Bicinchoninic Acid (BCA) method is used to estimate cell quantity and thus to homogenize the obtained data.
# MC1R = MC1R labelling by immunohistology in isolated hair follicles; format: cell-based, human; conditions: 10 ppm, 8 days
# Experimental: Follicles comprising their bulb with little pigment and isolated from a scalp plasty (resulting from cosmetic surgery— donor, dark blond; person) are placed individually in the wells of a culture plate containing the culture medium and maintained for survival (37° C.; 5% CO2).
# Twelve follicles are reserved for T0 to serve as a reference for visual estimation and quantification of pigmentation but also for subsequent labeling of MC1R and MITF by immunohistology (six follicles for each marker).
# Twelve follicles are placed in contact with the peptide according to the invention at 10 ppm in its solvent and twelve others in contact with the solvent alone for 8 days (0.1% DMSO in culture medium). At 8 days, all the follicles are stopped and fixed, then sectioned (7 μm) and marked with alunated carmine and photographed under a microscope. Sections of 6 of them (for each group) are used for visual and quantitative assessment by image analysis of their pigmentation (with specific filter to measure melanin). Sections of the other 6 are used for MC1R and MITF scoring, which is to be assessed by visual estimation.
# [3] = tested on: Normal human melanocytes (NHM); experiment: Reduction of the ROS quantity in NHM (DCFH-DA probe, with or without H2O2 stress); format: cell-based; conditions: for ROS quantity, variation: 24 h, vs control, n = 3
# Experimental: Normal human melanocytes (NHM) almost at confluence are brought into contact with the peptide according to the invention for 24 hours. At the end of this contact, the cells are contacted with a DCFH-DA probe which is inserted into these cells. After rinsing to remove the excess probe, the cells are placed in contact with H2O2 to mimic oxidative stress. A case without oxidative stress is also realized. The reaction of H2O2 with the probe in the cell is measured by fluorescence. An estimate of the quantity of cells is carried out in parallel to harmonize the results.
# CREB = experiment: Expression of melanogenesis genes in NHM (qRTPCR): CREB; format: cell-based, human; conditions: 72 h, vs control, n = 4
# Experimental: as §1
# [4] = tested on: Normal human keratinocytes (NHK); experiment: Microbead (melanosome mimic) phagocytosis by keratinocytes; format: cell-based; conditions: 24 hours then microbeads 3 hours, vs control
# Experimental: Normal human keratinocytes (NHK) are seeded and cultured until a mat of confluent cells is obtained. The cells are brought into contact with the peptide according to the invention for 24 hours and a solution of fluorescent microbeads mimicking the melanosomes of the melanocyte is added for 3 hours. The beads are phagocytosed (ingested) by the keratinocytes and quantified, after rinsing, by image analysis. In parallel, the cell nuclei are counterstained using the Hoescht33258 fluorescent dye to estimate the cell quantity and to harmonize the data.
# catalase = experiment: Catalase activity of the NHM (resorufin reagent); format: cell-based, human; conditions: 24 h, vs control
# Experimental: NHM almost at confluence are brought into contact with the peptide according to the invention for 24 hours. At the end of this contact, the cells are crushed. The catalase activity extracted from these cells is measured using resorufin reagent. The latter combines with the H2O2 remaining in the reaction well after the action of cellular catalase. A protein assay using bicinchoninic acid (BCA) method is used to estimate the cell quantity to homogenize the obtained data.
smiles,measurement,setting,value
"CCCCCCCCCCCCCCCC(=O)N1CCC[C@H]1C(=O)N1CCC[C@H]1C(=O)O [Pal-PP-OH, palmitoyl-prolyl-proline] (HELM PEPTIDE1{[CCCCCCCCCCCCCCCC(=O)[*:2]].P.P}$$$$V2.0)","Lenght of the dendrites, Variation (%)",[1]; 5 ppm,+20%; p < 0.01
same,"Lenght of the dendrites, Variation (%)",[1]; 10 ppm,+33%; p < 0.01
same,"Lenght of the dendrites, Variation (%)",[1]; 15 ppm,+57%; p < 0.01
same,variation in the expression of MITF gene,MITF; 10 ppm,+39%; p < 0.01
same,variation in the expression of MITF gene,MITF; 12.5 ppm,+42%; p < 0.01
same,variation in the expression of TYRP1 gene,TYRP1; 10 ppm,+42%; p < 0.01
same,variation in the expression of TYRP1 gene,TYRP1; 12.5 ppm,+54%; p < 0.01
same,"non-white/white hair Ratio, Maximum (variation)",[2],+385%
same,"non-white/white hair Ratio, Mean",[2],2.56
same,"non-white/white hair Ratio, respondents",[2],72%
same,"non-white/white hair Ratio, % Variation vs. T0",[2]; listed as peptide according to the invention,approximately +27.4%
same,"non-white/white hair Ratio, % Variation vs. T0",[2]; listed as peptide of the invention,+27.4%
same,"Tyrosinase activity, Variation (%)","tyrosinase; 5 ppm, poorly pigmented (§§) NHM",+15%; p < 0.05
same,"Tyrosinase activity, Variation (%)","tyrosinase; 7 ppm, moderately pigmented (§) NHM",+14%; p < 0.01
same,"Tyrosinase activity, Variation (%)","tyrosinase; 10 ppm, moderately pigmented (§) NHM",+27%; p < 0.01
same,"Tyrosinase activity, Variation (%)","tyrosinase; 10 ppm, poorly pigmented (§§) NHM",+74%; p < 0.01
same,"MC1R in the lower sheaths, visual estimation vs control",MC1R,increased more
same,"MC1R in the bulb, visual estimation compared to T0",MC1R; stable in the control case,increased
same,"ROS quantity, variation","[3]; 10 ppm, after the H2O2 stress",−25%; p < 0.01
same,"ROS quantity, variation","[3]; 10 ppm, without H2O2 stress (basal state)",−23%; p < 0.01
same,"ROS quantity, variation","[3]; 12.5 ppm, after the H2O2 stress",−33%; p < 0.01
same,"ROS quantity, variation","[3]; 12.5 ppm, without H2O2 stress (basal state)",−24%; p < 0.01
same,reduction of the production of intracellular peroxide,"[3]; during oxidative stress, vs. control",33%
same,variation in the expression of CREB gene,CREB; 10 ppm,+46%; p < 0.01
same,variation in the expression of CREB gene,CREB; 12.5 ppm,+56%; p < 0.01
same,"Number of microbeads per image analysis, Variation (%)","[4]; 5 ppm, n = 3",+50%; p < 0.05
same,"Number of microbeads per image analysis, Variation (%)","[4]; 10 ppm, n = 3",+283%; p < 0.01
same,"Number of microbeads per image analysis, Variation (%)","[4]; 10 ppm, n = 3, listed as peptide according to the invention",+283%
same,"Catalase activity, Variation (%)","catalase; 10 ppm, n = 3",+31%; p < 0.01
same,"Catalase activity, Variation (%)","catalase; 12.5 ppm, n = 3",+37%; p < 0.01
same,"Catalase activity, Variation (%)","catalase; 12.5 ppm, n = 3, listed as peptide according to the invention",+37%
